Laboratory results reported in US8097619B2, “Inhibitors of cyclin-dependent kinases, compositions and uses related thereto” (Agennix USA Inc., priority 2003, dated 2012).

Columns and labels:
[1] = tested on: peripheral blood mononuclear cells (PBMCs); assay: Cytotoxicity in PBMCs (MTS assay); assay type: cell-based, human; details: read-out: TC50 (μM): 50% cytoxicity (MTS), 7 days
Protocol: (§1) The activity of the certain compounds of the invention was evaluated in peripheral blood mononuclear cells (PBMCs) infected with the low passage, clinical isolate HIV-1ROJO to generate a measure of the efficacy of these compounds in acutely infected cells. The use of these normal human cells allows an estimate of the therapeutic index of these compounds to be made. Fresh PBMCs from two donors were pooled and stimulated with PHA-P for 48-72 hours. The cells were then cultured in the presence of IL-2 to maintain the cell division initiated by the mitogenic signal. The virus was added at a multiplicity of infection of 0.1. The cells were cultured for 7 days post infection prior to the evaluation of efficacy. Viral replication was measured by the level of reverse transcriptase activity in the supernatant and cytotoxicity was measured with the MTS assay.

HIV-1ROJO = assay: Antiviral activity in infected PBMCs (reverse transcriptase in supernatant); assay type: cell-based
Protocol: as §1

HCT-116 cells [2] = assay: Cell cycle analysis with propidium iodide (FACS); assay type: cell-based, human; details: exposure 24, 48 and 72 hours
Protocol: The percentage of cells in the G1, S and G2/M phases of the cell cycle was determined by staining DNA with propidium iodide and quantifying the number of cells with a 2N or 4N DNA complement by flow cytometry. Alterations in the distribution of cells across the cell cycle in response to exposure to the Cdk inhibitors was evaluated in this manner.
3 sets of HCT-116 cells (100,000 cells/set) were cultured in the presence of a test compound in T-25 flasks according to Table 1 below. Analysis was performed at 24, 48 and 72 hours. Adherent cells were collected by trypsinization, combined with floating cells in Falcon 12×75 flow cytometric tubes, and harvested by centrifugation. The media was decanted from the cell pellet, 100 μl of PI stain was added and the cells were incubated at 37° C. for 20-25 minutes. The cell count was preferably no greater than 2×10^6-4×10^6/ml. An equal volume (100 μl) of PI salt was then added to the cells, which were then incubated at 4° C. for 1-2 hours. The stained cells were analyzed on a Becton Dickinson FACScan flow cytometer. Samples were protected from light.

HCT-116 cells [3] = assay: Calcein AM viability assay, HCT-116; assay type: cell-based; details: Homo sapiens, non-protein adjusted, Table 6
Protocol: The potency of Cdk inhibitors, as measured by loss of cellular viability, was determined with the Calcein AM assay (Molecular Probes). Calcein AM is a substrate of intracellular esterases, which is cleaved only in viable cells to generate a fluorescent product that can be quantified with a fluorescent plate reader. The fluorescent signal is proportional to the number of viable cells, and thus loss of signal in response to the exposure of cells to Cdk inhibitors correlates with a loss of viability. This assay can distinguish cell cycle arrest, in which cells may still by viable, from loss of viability and is thus well suited for the evaluation of Cdk inhibitors. A compound that is a potent cytotoxic, may cause significant loss of cell viability in such assay.
Cellular IC50's were determined in the human colorectal carcinoma cell line, HCT-116, and the normal human fibroblast, IMR90. Protein adjusted IC50's were also determined in HCT-116.
HCT-116 or IMR90 cells were recovered from sub-confluent plates by trypsinization and 1,000 or 4,000 cells, respectively, were plated in 24-well dishes and incubated overnight at 37° C., 5% CO2. […]
A 5 μM Calcein AM solution was prepared by dissolving a 50 μg aliquot of Calcein (Molecular Probes catalog #C3100) in 50 μl DMSO. […] (protected from light) and the fluorescent signal was read on a fluorescent plate reader (excitation 485/20 and emission 530/25).

HCT-116 cells [4] = assay: Clonogenic survival assay with HCT-116 cells; assay type: cell-based, human; details: at 100 nM, time-course (FIG. 3)
Protocol: This assay was used to determine the concentration of a compound that results irreversible loss of viability after a specified period of exposure. Essentially, cells are exposed to compound for a period of 1, 2 or 5 days, and are then transferred to compound-free growth medium. After continued incubation in the compound-free medium for a number of days, the number of colonies recovered is counted as an estimate of the number of surviving cells.
Media (RPMI-1640, 10% FCS, pen/strep) was pre-warmed to 37° C. in a water bath. Cells were incubated and grown at 37° C., 5% CO2. Cells were recovered by trypsinization from sub-confluent plates and counted using a hemocytometer. 1×10^4 cells were plated in 25 mls of media in a 15 cm tissue culture dish. 14 plates were set up for each test compound, and were incubated overnight at 37° C. The compound was diluted into media at 7 concentrations and the media on the cells was replaced with that containing the test compound. Two plates were set up for each concentration of the compound to be tested, as well as two control plates without compound. […] Colonies were stained with crystal violet solution (0.4% crystal violet, 20% ethanol) for 5 minutes, washed twice with distilled water, and counted.

Row | Compound | TI: TC50/IC50 (HIV-1ROJO) | also measured
1 | Cc1cn([C@H]2C[C@H](N=[N+]=[N-])[C@@H](CO)O2)c(=O)[nH]c1=O [AZT, reference compound] | >100 | CC50 [1]: > 1 µM
2 | CC(C)c1nn(-c2c(Cl)cccc2Cl)c2nc(Cc3ccc(OCCN4CCOCC4)c(O)c3)[nH]c(=O)c12 [Compound A32] | >10 | 
3 | CC(C)N1CCN(C(=O)COc2ccc(-c3[nH]nc4c3C(=O)c3c(NC(=O)NN5CCOCC5)cccc3-4)cc2)CC1.Cl [Compound A37] |  | effect on cell cycle distribution (PI FACS) (HCT-116 cells [2]): terminally arrested in G1 and G2, with evidence of apoptosis and endo-reduplication
4 | CC(C)c1nn(-c2c(Cl)cc(Cl)cc2Cl)c2nc(Cc3ccc(OCCO)cc3)[nH]c(=O)c12 [Compound A61] | >10 | 
5 | CC(C)c1nn(-c2c(Cl)cc(Cl)cc2Cl)c2nc(Cc3ccc(OCC(C)(C)O)cc3)[nH]c(=O)c12 [Compound A64] | >10 | 
6 | O=C(Nc1cccc2c1C(=O)c1c(-c3ccc(CN4CCCC4CO)cc3)n[nH]c1-2)NN1CCOCC1 (centres unmarked) [Compound B6] |  | IC50 (HCT-116 cells [3]): < 0.1 µM
7 | COCCN1CCN(Cc2ccc(-c3[nH]nc4c3C(=O)c3c(NC(=O)NN5CCOCC5)cccc3-4)cc2)CC1.Cl.Cl [Compound B16] |  | time within which IC50 reached (HCT-116 cells [4]): 30 to 60 min; effect on cell cycle distribution (PI FACS) (HCT-116 cells [2]): Analogous results
8 | CC(C)c1nn(-c2c(Cl)cccc2Cl)c2nc(Cc3ccc(CN4CCCC4)c(O)c3)[nH]c(=O)c12.Cl [Compound C3] | >10 | 
9 | CC(C)c1nn(-c2c(Cl)cc(Cl)cc2Cl)c2nc(Cc3ccc(CNC(CO)CO)n3C)[nH]c(=O)c12.Cl [Compound C4] | >1 | 
